Test results as given in patent publication US11591342B2, “Heterocyclic compound, application thereof and pharmaceutical composition comprising same” (SUZHOU SINOVENT PHARMACEUTICALS CO., LTD., priority 2018, dated 2023).

Experiments:
Autotaxin (ATX) = Autotaxin (ATX) (Homo sapiens (Human), UniProt Q13822); experiment: ATX bioactivity assay (Amplex Red / choline oxidase / HRP fluorescence, LPC 16:0 substrate); assay type: biochemical; conditions: 30 min room temperature
Protocol: Effect Example 1 Bioactivity Assay
Preparation and Treatment
Stock Solution Preparation
A 10 mM DMSO stock solution was formulated for each compound. A 30 mM DMSO stock solution was formulated for positive control HA130.
The DMSO stock solutions were stored at room temperature in a desiccator for a short period of time or at −20° C. for a long period of time.
All compounds were serially 3-fold diluted in DMSO from 10 μM to the 10th concentration.
A 1000× positive control (10 mM, HA130) and a 1000× negative control (100% DMSO) were prepared.
The plates were shaken for 5 min.
Preparation of 1× Reaction Buffer:
5× reaction buffer and cold water were mixed well in a volume ratio of 1:4.
Preparation of 20 U/mL Choline Oxidase Stock Solution:
1 tube of choline oxide in a kit was dissolved in 1× reaction buffer. The aliquots were frozen at −20° C.
Preparation of 200 U/mL Horseradish Peroxidase (HRP) Stock Solution:
1 tube of HRP in a kit was dissolved in 1 mL of 1× reaction buffer. The aliquots were frozen at −20° C.
Preparation of 20 mM Amplex® Red Reagent (for Detection) Stock Solution
Amplex Red reagent and DMSO were equilibrated at room temperature. 1 tube of Amplex Red reagent in a kit was dissolved in 200 μL of DMSO.
a) 2×ATX ([…]), 2×HRP ([…]), 2× choline oxidase (0.2 U/mL) were added to 1× reaction buffer.
b) 20 μL of the reaction mixture was added to the plate (PE, 6007270) (refer to step a).
c) 40 nL of diluent was added to the plate using Echo (refer to “Preparation”).
d) 2×LPC (16:0) (60 mM) and 2× Amplex® Red ([…]) were prepared using 1× reaction buffer.
e) 20 μL of the mixture was added to the plate (refer to step d).
f) The plate was shaken for 30 s and allowed to stand at room temperature for 30 min.
g) The plate was examined using Envision, and the procedure was as follows: Excitation at 530 nm; and Emission at 590 nm.
Formula for Calculating % Inhibition (Percent Inhibition Rate) as Follows:
FLU: Fluorescence (fluorescence reading)
FLUpositive: Average fluorescence value in positive control wells (10 μM HA130) in the plate.
FLUvehicle: Average fluorescence value in negative control wells (0.1% DMSO) in the plate.
Calculation of IC50 and Dose-Response Curve:
IC50 of the compounds was calculated via a non-linear regression line (dose-variable slope) fitted using % inhibition and log of compound concentration. The software used was Graphpad 5.0. Y=Bottom+(Top−Bottom)/(1+10^((Log IC50−X)×Hill Slope))
X: log of inhibitor concentration

CYP3A4 = CYP3A4 (Homo sapiens (Human), UniProt P08684); experiment: Time-dependent inhibition of CYP3A4 (TDI assay, human liver microsomes); assay type: in vitro ADME; conditions: for CYP3A4 TDI % @ 10 μM: human liver microsomes, Midazolam substrate, 30 min with NADPH vs 0 min; for time-dependent inhibition on CYP3A4 (conclusion): conclusion drawn from Table 3, 10 μM
Protocol: Effect Example 3. Time-Dependent Inhibition of CYP3A4
1. Preheating potassium phosphate buffer (K-buffer), pH 7.4: 100 mM potassium phosphate buffer (K-buffer) was prepared by mixing 9.5 mL of solution A with 40.5 mL of solution B, diluting to 500 mL with ultrapure water, and then adjusting to pH 7.4 with KOH or H3PO4, wherein the solution A (1M potassium dihydrogenphosphate) was prepared by dissolving 136.5 g of potassium dihydrogenphosphate in […] of ultrapure water.
2. Preparation of human liver microsome suspension (1.3 mg/mL, 1.3×, stock: 20 mg/mL): 100 μL of human liver microsome suspension (20 mg/mL) was added into […] of K-buffer.
3. Preparation of NADPH solution (4.167 mg/mL, 5 mM): 8.3 mg of NADPH was added into 2 mL of buffer.
4. Preparation of substrate solution (1.5× final): 1.5 μL of 10 mM Midazolam was added to 998.5 μL of K-buffer to yield the substrate mixture.
5. Preparation of 100× test compound, reference and blank control solutions: 3 μL of 10 mM stock solution of test compound was added to 27 μL of ACN; 3 μL of positive control stock solution was added to 27 μL of ACN; and 3 μL of DMSO was added to 27 μL of ACN to serve as blank control.
6. Primary preheating system: An NADPH-free system for 0 min incubation: 78 μL of 1.3× human liver microsome solution (step 2) was mixed with 1 μL of the 100× stock solutions of positive control, test compound, or blank control (step 5); A system containing NADPH for 30 min incubation: 78 μL of 1.3× human liver microsome solution (step 2) was mixed with 1 μL of the 100× stock solutions of positive control, test compound, or blank control (step 5).
7. Secondary preheating system: 150 μL of the substrate solution prepared in step 4 was added into a deep well plate together with the NADPH solution from step 3
8. The samples were preheated for 10 min in a 37° C. water bath.
9. Reaction procedure: (1) reaction for 0 min: 21 μL of K-buffer was added to the primary preheating system and mixed well without incubation; 20 μL of the mixture was immediately transferred into the plate of the secondary preheating system; after mixing, the secondary system was incubated in a 37° C. water bath for 15 min, and 60 μL of the reaction mixture was added into 120 μL of acetonitrile containing internal standard to terminate the reaction; and (2) reaction for 30 min: 21 μL of NADPH was added into the primary preheating system for a 30-min incubation after mixing; 20 μL of the mixture was added into the secondary preheating system prior to mixing; the mixture was incubated in a 37° C. water bath for 15 min, and 60 μL of the reaction mixture was added into 120 μL of acetonitrile containing internal standard to terminate the reaction.
10. After termination, the samples were shaken on a shaker at 600 rpm for 10 min and centrifuged at 5594 g for 15 min prior to LC-MS/MS analysis.

LPA18:2 in mouse plasma = experiment: Inhibition of LPA in mouse plasma (plasma LPA18:2 assay, LC-MS/MS); assay type: biochemical, CD1 mice; conditions: fresh CD1 mouse plasma, LPA18:2, 37° C. for 120 min
Protocol: Effect Example 2. Inhibition of LPA in Mouse Plasma by Compounds
20 mM stock solutions of the compounds were prepared with DMSO and then diluted to 1 mM, which was subjected to a serial 3-fold dilution to yield 10 working solutions.
Collection of Fresh Mouse Plasma:
CD1 mice were euthanized by CO2 inhalation. Approximately 1 mL of whole blood was taken by cardiac puncture, with EDTA-K2 for anticoagulation. The blood was centrifuged at 3220 g for 10 min at 4° C. for plasma collection.
Reactions were performed in a 96-well plate, and the samples were tested in duplicate. 1 μL of each working solution was added to 100 μL of plasma, with the final concentrations of […]. 1 μL of DMSO was added to plasma to serve as blank. The samples were incubated in a water bath at 37° C. for 120 min, and 600 μL of 10 μM tolbutamide in methanol was added to terminate the reaction. Tolbutamide also served as an internal standard. After 5 min of vortex mixing, the samples were centrifuged at 3220 g for 45 min at 4° C. to precipitate the protein. 100 μL of the supernatant was transferred to a new plate, diluted with water based on LC-MS response and peak shapes, mixed well and analyzed by LC-MS/MS.
LPA18:2 was quantified using peak area ratio (LPA18:2/internal standard), requiring no standard curve. For test compounds of different concentrations, LPA data was represented by a percentage decrease of LPA: 100-[((LPA peak area ratio of compound)/(LPA peak area ratio of control))×100]. IC50 was calculated using Graphpad Prism 6.0 software.

Sequence of CYP3A4 (P08684 whole entry): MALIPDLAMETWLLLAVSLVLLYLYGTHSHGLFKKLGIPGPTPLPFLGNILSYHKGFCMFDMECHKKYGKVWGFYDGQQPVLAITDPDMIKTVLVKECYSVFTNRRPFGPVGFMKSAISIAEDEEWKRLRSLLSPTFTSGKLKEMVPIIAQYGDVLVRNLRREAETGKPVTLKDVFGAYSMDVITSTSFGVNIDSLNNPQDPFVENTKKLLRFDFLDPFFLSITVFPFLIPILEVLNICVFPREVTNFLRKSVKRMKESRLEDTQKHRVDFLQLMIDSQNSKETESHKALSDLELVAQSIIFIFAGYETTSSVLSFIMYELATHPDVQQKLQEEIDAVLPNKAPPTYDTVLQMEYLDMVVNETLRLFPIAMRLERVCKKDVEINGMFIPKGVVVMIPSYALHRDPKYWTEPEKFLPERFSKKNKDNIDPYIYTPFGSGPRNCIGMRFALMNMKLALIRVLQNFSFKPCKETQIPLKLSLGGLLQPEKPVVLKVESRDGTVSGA

Row | Compound | IC50 (Autotaxin (ATX)) | CYP3A4 TDI % @ 10 μM (CYP3A4) | time-dependent inhibition on CYP3A4 (conclusion) (CYP3A4) | IC50 (LPA18:2 in mouse plasma)
1 | CCc1oc2c(F)cc(N3CCN(CC(=O)N4CC(O)C4)CC3)cc2c1N(C)c1nc(-c2ccc(F)cc2)c(C#N)s1 [Compound S-0024, 2-((2-ethyl-7-fluoro-5-(4-(2-(3-hydroxyazetidin-1-yl)-2-oxoethyl)piperazin-1-yl)benzofuran-3-yl)(methyl)amino)-4-(4-fluorophenyl)thiazole-5-carbonitrile] | 188 nM | 4.8% | no time-dependent inhibition on CYP3A4 | –
2 | CCn1nc2c(F)cc(N3CCN(CC(=O)N4CC(O)C4)CC3)cc2c1N(C)c1nc(-c2ccc(F)c(F)c2)c(C#N)s1 [Compound S-0027, 4-(3,4-difluorophenyl)-2-((2-ethyl-7-fluoro-5-(4-(2-(3-hydroxyazetidin-1-yl)-2-oxoethyl)piperazin-1-yl)-2H-indazol-3-yl)(methyl)amino) thiazole-5-carbonitrile] | 165 nM | 42.12% | weak time-dependent inhibition on CYP3A4 | –
3 | CCc1oc2ncc(N3CCN(CC(=O)N4CC(O)C4)CC3)cc2c1N(C)c1nc(-c2ccc(F)cc2)c(C#N)s1 [Compound S-0045, 2-((2-ethyl-5-(4-(2-(3-hydroxyazetidin-1-yl)-2-oxoethyl)piperazin-1-yl)furo[2,3-b]pyridin-3-yl)(methyl)amino)-4-(4-fluorophenyl)thiazole-5-carbonitrile] | 261 nM | 2.68% | no time-dependent inhibition on CYP3A4 | –
4 | CCc1oc2cnc(N3CCN(CC(=O)N4CC(O)C4)CC3)cc2c1N(C)c1nc(-c2ccc(F)cc2)c(C#N)s1 [Compound S-0046, 2-((2-ethyl-5-(4-(2-(3-hydroxyazetidin-1-yl)-2-oxoethyl)piperazin-1-yl)furo[2,3-c]pyridin-3-yl)(methyl)amino)-4-(4-fluorophenyl)thiazole-5-carbonitrile] | > 10000 nM | 10.38% | no time-dependent inhibition on CYP3A4 | –
5 | CCc1nn2ccc(N3CCN(CC(=O)N4CC(O)C4)CC3)nc2c1N(C)c1nc(-c2ccc(F)c(F)c2)c(C#N)s1 [Compound S-0121, 4-(3,4-difluorophenyl)-2-((2-ethyl-5-(4-(2-(3-hydroxyazetidin-1-yl)-2-oxoethyl)piperazin-1-yl)pyrazolo[1,5-a]pyrimidin-3-yl)(methyl)amino)thiazole-5-carbonitrile] | 61 nM | – | – | –
6 | CCN(c1nc(-c2ccc(F)c(F)c2)c(C#N)s1)c1c2cc(N3CCN(CC(=O)N4CC(O)C4)CC3)cc(F)c2nn1CC [Compound S-0123, 4-(3,4-difluorophenyl)-2-(ethyl(2-ethyl-7-fluoro-5-(4-(2-(3-hydroxyazetidin-1-yl)-2-oxoethyl)piperazin-1-yl)-2H-indazol-3-yl)amino)thiazole-5-carbonitrile] | 32 nM | – | – | –
7 | CC(C)n1nc2c(F)cc(N3CCN(CC(=O)N4CC(O)C4)CC3)cc2c1N(C)c1nc(-c2ccc(F)cc2)c(C#N)s1 [Compound S-0125, 2-((7-fluoro-5-(4-(2-(3-hydroxyazetidin-1-yl)-2-oxoethyl)piperazin-1-yl)-2-isopropyl-2H-indazol-3-yl)(methyl)amino)-4-(4-fluorophenyl)thiazole-5-carbonitrile] | 178 nM | – | – | –
8 | CN(c1nc(-c2ccc(F)cc2)c(C#N)s1)c1c2cc(N3CCN(CC(=O)N4CC(O)C4)CC3)cc(F)c2nn1C1CC1 [Compound S-0126, 2-((2-cyclopropyl-7-fluoro-5-(4-(2-(3-hydroxyazetidin-1-yl)-2-oxoethyl)piperazin-1-yl)-2H-indazol-3-yl)(methyl)amino)-4-(4-fluorophenyl)thiazole-5-carbonitrile] | 100 nM | – | – | –
9 | CCN(c1nc(-c2ccc(F)cc2)c(C#N)s1)c1c2cc(N3CCN(CC(=O)N4CC(O)C4)[C@@H](C(F)(F)F)C3)cc(F)c2nn1CC [Compound S-0135B, (R)-2-(ethyl (2-ethyl-7-fluoro-5-(4-(2-(3-hydroxyazetidin-1-yl)-2-oxoethyl)-3-(trifluoromethyl)piperazin-1-yl)-2H-indazol-3-yl)amino)-4-(4-fluorophenyl)thiazole-5-carbonitrile] | – | – | – | 167 nM
10 | CCn1nc2c(C)cc(N3CCN(CC(=O)N4CC(O)C4)CC3)nc2c1N(CC(F)(F)F)c1nc(-c2ccc(F)cc2)c(C#N)s1 [Compound S-0140, 2-((2-ethyl-5-(4-(2-(3-hydroxyazetidin-1-yl)-2-oxoethyl)piperazin-1-yl)-7-methyl-2H-pyrazolo[4,3-b]pyridin-3-yl)(2,2,2-trifluoroethyl)amino)-4-(4-fluorophenyl)thiazole-5-carbonitrile] | 325 nM | – | – | –
11 | O=C1S/C(=C\c2ccc(OCc3cccc(B(O)O)c3)cc2)C(=O)N1Cc1ccc(F)cc1 [HA130, reference compound] | 24 nM | – | – | –
